Assay [1] relates to LN-18 cells. The assay is described as follows: Cell death by PI staining and flow cytometry, LN-18. The assay is classed as cell-based, human. As to conditions: 6 h at 37°C, serum-free medium, means ± SD (n=3), Fig 1H, read-out: IC50 for inducing cell death. An excerpt: Figure 1 VDAC1-based peptides induce dramatic cell death of several brain tumor-derived cell lines but to lesser extent in primary brain cells A. IHC staining of VDAC1 of human normal brain (n=13) or glioblastoma (n=41) in tissue array slides (Biomax), as described in Materials and methods available online in Supplemental information. Percentages of sections stained at the intensity indicated are shown. […] The VDAC1-derived sequences Δ(1-14)N-terminus and LP4 are in green and pink, respectively. The cell-penetrating peptides Antp and Tf are in orange and blue, respectively. The loop shape of LP4 stabilized by a tryptophan zipper is in purple. The amino acids of Δ(1-14)N-terminus, LP4 and Antp are in the D configuration. The sequences of D-LP4 and Retro-D-LP4 are presented below. C. […] Cells were harvested, washed twice with PBS and cell death was analyzed by propidium iodide (PI) staining and flow cytometry. […] Cells were harvested, washed twice with PBS and cell death was analyzed by PI staining and flow cytometry. […]
Cells (6×10^5 /ml) were incubated in 500 μl serum-free medium with the peptide of interest for 6 h at 37°C in the presence of 5% CO2. The cells were then trypsinized, centrifuged (1500xg, 5 min), washed with PBS and analyzed for cell death using propidium iodide (PI) staining and flow cytometer (Beckton-Dickinson, San Jose, CA) and BD CellQuest Pro software. […]

Assay [2] relates to U-87MG sub-cutaneous xenograft tumors. As to the kind of experiment: Sub-cutaneous U-87MG xenograft, tumor growth. It counts as in vivo, human U-87MG in nude mice. As to conditions: s.c. U-87MG xenograft, 20 μM intra-tumoral every two days, end point, n=5. The procedure:
Figure 3 VDAC1-based peptides inhibit tumor growth, cell proliferation, and invasion in a glioblastoma xenograft mice model A. Graphical representation of the xenograft experiment protocol used. U-87MG cells (3×10^6/mouse) were inoculated into male nude mice as described in Materials and Methods available online in Supplemental information. B, C. […] The calculated average tumor volumes are presented as means ± SE (n=5) (* p≤0.05, ** p≤0.01). C. The volume of peptide-treated tumors is presented as % of control for each indicated time. Results = mean ± SE (n=5) (* p≤0.05, ** […]). […] E. Quantitative analysis of Ki-67 positive cells. Results = mean ± SE (n=5) (*** p<0.001). […]
U-87MG glioblastoma cells (3 x10^6) were inoculated s.c. into the hind leg flanks of athymic eight-week old male nude mice (Envigo). Thirteen days post-inoculation, tumor volume was measured (100-130 mm^3) and mice were randomized into three groups (5 animals/group), treated with PBS containing 0.26% DMSO or peptide in PBS, 0.26% DMSO/20 μM every second day. […]
(Calbiochem, UK). […] Thirteen days post-inoculation, using various primary antibodies (sources and dilutions tumor volume was measured and calculated (100-130 as detailed in supplementary Table 2), followed by mm3) and mice were randomized into three groups (5 the appropriate HRP-conjugated secondary antibodies mice/group). […]

Non-standard residues stand in square brackets, D forms with d. Residues, ends and D or L forms follow the SMILES beside them.

Regarding `CC[C@@H](C)[C@@H](NC(=O)[C@@H](CCCCN)NC(=O)[C@H](NC(=O)[C@@H](CCC(N)=O)NC(=O)[C@@H](CCCNC(=N)N)NC(=O)[C@@H](CC(C)C)NC(=O)CNC(=O)[C@@H](Cc1ccccc1)NC(=O)CNC(=O)[C@@H](Cc1ccc(O)cc1)NC(=O)CNC(=O)[C@@H](CCCCN)NC(=O)[C@H](NC(=O)[C@@H](Cc1ccccc1)NC(=O)[C@H](NC(=O)[C@@H](CC(=O)O)NC(=O)[C@H](N)CCCNC(=N)N)C(C)C)[C@H](C)O)[C@H](C)CC)C(=O)N[C@H](Cc1c[nH]c2ccccc12)C(=O)N[C@H](Cc1ccccc1)C(=O)N[C@H](CCC(N)=O)C(=O)N[C@H](CC(N)=O)C(=O)N[C@H](CCCNC(=N)N)C(=O)N[C@H](CCCNC(=N)N)C(=O)N[C@H](CCSC)C(=O)N[C@H](CCCCN)C(=O)N[C@H](Cc1c[nH]c2ccccc12)C(=O)N[C@H](CCCCN)C(=O)N[C@H](CCCCN)C(=O)O` [D-ΔN-Ter-Antp] (H-[dR][dD][dV][dF][dT][dK]G[dY]G[dF]G[dL][dR][dQ][dI][dK][dI][dW][dF][dQ][dN][dR][dR][dM][dK][dW][dK][dK]-OH; N-terminus and C-terminus assumed), the IC50 in assay [1] turned out to be 3000 ± 600 nM. Further, in assay [2], the “lower average tumor volume relative to PBS/DMSO” value is listed as “about 75%”.
